# Results as given in patent US9296720B2, “Carboxamide-substituted heteroaryl-pyrazoles and the use thereof” (AiCuris GmbH & Co. KG, priority 2011, dated 2016).
# Legend:
# reverse transcriptase = target: T1, reverse transcriptase (Human immunodeficiency virus type 1 group M subtype B, UniProt P04585); test: Biochemical reverse transcriptase assay (Reverse Transcriptase Assay, colorimetric, Roche); conditions: colorimetric RT assay, DMSO 1%
# T1 construct: negative control (batch without reverse transcriptase); purchased Roche Diagnostics GmbH, Mannheim, Germany
# Description: The “Reverse Transcriptase Assay, colorimetric” (Roche Diagnostics GmbH, Mannheim, Germany) is used according to manufacturers' instructions. The test substances are dissolved in DMSO and used in diluted form in the test in the five steps (DMSO final concentration: 1%). The resulting values of the photometric analysis (405/492 nm) are smaller than 0.1 in the negative control (batch without reverse transcriptase) and are in the range of 1.5 in the positive control (batch without test substance). The IC50 values of the test substances are determined as the concentration of the test substance dilution, in which the measured optical density is 50% of the positive control.
# HIV-1LAI Wild Type = test: AlamarBlue viability assay, HIV-1LAI-infected MT4 cells; type: cell-based; conditions: Human immunodeficiency virus 1, MT4, MT4 cells, 10% FCS
# How it was run: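 MT4 cells infected with HIV-1LAI (MOI 0.01, supernatant infection) cultured 5 days at 37 °C with compounds in RPMI with 2% or 10% FCS, 1% DMSO final. AlamarBlue fluorescence after 3 h; EC50 as 50% protection relative to uninfected cells, CC50 from high-concentration cytotoxicity.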
# HIV-1NL4-3 Wild Type = test: Luminescence reduction assay, MT4 cells infected with HIV-1NL4-3 luciferase reporter virus, wild type; type: cell-based; conditions: Human immunodeficiency virus 1, MT4, MT4 cells, 2% FCS
# How it was run: (§1)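 MT4 cells pellet-infected 2 h at 37° C with HIV-1NL4-3 reporter virus (lu164 replacing nef; wild type or site-directed RT mutants), washed, then incubated with compound dilutions (1% DMSO, 2% or 10% FCS) for 5 days. Secreted luciferase read with coelenterazine buffer; EC50 = concentration halving RLU versus untreated infected cells.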
# HIV-1NL4-3 K103N-Y181C = test: Luminescence reduction assay, MT4 cells infected with HIV-1NL4-3 luciferase reporter virus, RT mutant K103N-Y181C; type: cell-based; conditions: Human immunodeficiency virus 1, MT4, read-out: EC50 (μM) MT4 Cells HIV-1NL4-3 K103N-Y181C 2% FCS, MT4 cells, HIV-1NL4-3 K103N-Y181C, 2% FCS
# How it was run: as §1
compound,measurement,setting,value
"O=C1CN(C(=O)c2cc(-c3cc(Br)cc(OC(F)(F)F)c3)n(-c3ccnc(Cl)c3)n2)CCN1 [Example 49, 4-({5-[3-Bromo-5-(trifluoromethoxy)phenyl]-1-(2-chloropyridin-4-yl)-1H-pyrazol-3-yl}carbonyl)piperazin-2-one]",IC50,reverse transcriptase,758 nM
same,EC50,HIV-1LAI Wild Type,0.23 µM
same,EC50,HIV-1NL4-3 Wild Type,0.008 µM
same,EC50,HIV-1NL4-3 K103N-Y181C,0.038 µM
"O=C(c1cc(-c2cc(Cl)cc(OC(F)F)c2)n(-c2cccnc2)n1)N1CCS(=O)(=O)C1 [Example 83, {5-[3-Chloro-5-(difluoromethoxy)phenyl]-1-(pyridin-3-yl)-1H-pyrazol-3-yl}(1,1-dioxido-1,3-thiazolidin-3-yl)methanone]",IC50,reverse transcriptase,65 nM
same,EC50,HIV-1LAI Wild Type,0.089 µM
same,EC50,HIV-1NL4-3 Wild Type,0.008 µM
same,EC50,HIV-1NL4-3 K103N-Y181C,0.168 µM
O=C1CN(C(=O)c2cc(-c3cc(F)cc(OC(F)(F)F)c3)n(-c3cccnc3)n2)CCN1 [Example 58],IC50,reverse transcriptase,56 nM
same,EC50,HIV-1LAI Wild Type,0.955 µM
same,EC50,HIV-1NL4-3 Wild Type,0.204 µM
same,EC50,HIV-1NL4-3 K103N-Y181C,1.09 µM
"O=C1CN(C(=O)c2cc(-c3cc(Br)cc(OC(F)(F)F)c3)n(-c3cccnc3)n2)CN1 [Example 28, 1-({5-[3-Bromo-5-(trifluoromethoxy)phenyl]-1-(pyridin-3-yl)-1H-pyrazol-3-yl}carbonyl)imidazolidin-4-one]",IC50,reverse transcriptase,213 nM
same,EC50,HIV-1LAI Wild Type,0.044 µM
same,EC50,HIV-1NL4-3 Wild Type,0.005 µM
same,EC50,HIV-1NL4-3 K103N-Y181C,0.005 µM
"O=C(c1cc(-c2cc(Br)cc(OC(F)(F)F)c2)n(-c2ccnc(C(F)(F)F)c2)n1)N1CCS(=O)(=O)C1 [Example 52, {5-[3-Bromo-5-(trifluoromethoxy)phenyl]-1-[2-(trifluoromethyl)pyridin-4-yl]-1H-pyrazol-3-yl}(1,1-dioxido-1,3-thiazolidin-3-yl)methanone]",EC50,HIV-1LAI Wild Type,> 3.3 µM
same,EC50,HIV-1NL4-3 Wild Type,0.376 µM
same,EC50,HIV-1NL4-3 K103N-Y181C,0.74 µM
